Laboratory results from ChEMBL document CHEMBL5137046, “Discovery of novel 2,3-dihydro-1H-inden-1-ones as dual PDE4/AChE inhibitors with more potency against neuroinflammation for the treatment of Alzheimer's disease” (Eur J Med Chem, 2022).
Activity calls are given as the source filed them. The calls are words filed in the database; no cut-off is given here.

Columns and labels:
[1] = molecular target: Acetylcholinesterase (Electrophorus electricus) (UniProt O42275); assay: Inhibition of electric eel AChE using acetylthiocholine iodide as substrate at 10 uM preincubated with enzyme for 20 mins followed by substrate addition and measured after 10 mins by Ellman's method; details: time 30.0 min
[2] = molecular target: T1, 3',5'-cyclic-AMP phosphodiesterase 4D (Homo sapiens, UniProt Q08499); assay: Inhibition of PDE4D7 (unknown origin)
Acetylcholinesterase = Acetylcholinesterase (Electrophorus electricus, UniProt O42275); assay: Inhibition of electric eel AChE using acetylthiocholine iodide as substrate preincubated with enzyme for 20 mins followed by substrate addition and measured after 10 mins by Ellman's method
[3] = molecular target: T1, 3',5'-cyclic-AMP phosphodiesterase 4D; assay: Inhibition of PDE4D7 (unknown origin) at 10 uM
[4] = molecular target: Dual specificity calcium/calmodulin-dependent 3',5'-cyclic nucleotide phosphodiesterase 1A (Homo sapiens, UniProt P54750); assay: Inhibition of PDE1A (unknown origin)
[5] = molecular target: cGMP-inhibited 3',5'-cyclic phosphodiesterase 3B (Homo sapiens, UniProt Q13370); assay: Inhibition of PDE3B (unknown origin)
Mus musculus [6] = assay: In vivo inhibition of AChE in hippocampus of aggregated Abeta(25-35)-induced Alzheimer's disease C57BL/6 mouse model at 2 mg/kg, iv measured after 2 hrs by Ellman's method; format: functional, organism-based
[7] = molecular target: cGMP-specific 3',5'-cyclic phosphodiesterase (Homo sapiens, UniProt O76074); assay: Inhibition of PDE5A (unknown origin)
[8] = molecular target: High affinity cGMP-specific 3',5'-cyclic phosphodiesterase 9A (Homo sapiens, UniProt O76083); assay: Inhibition of PDE9A2 (unknown origin)
[9] = molecular target: High affinity 3',5'-cyclic-AMP phosphodiesterase 7A (Homo sapiens, UniProt Q13946); assay: Inhibition of PDE7A (unknown origin)
BV-2 [10] = assay: Cytotoxicity against mouse BV-2 cells assessed as reduction in cell viability at 20 uM by MTT assay; format: toxicity, cell-based; details: bv-2, 20 µM
PC-12 [11] = assay: Neuroprotective activity against rat PC-12 cells assessed as inhibition of Abeta(25-35)-induced cytotoxicity by measuring increase in cell viability at 10 to 20 uM incubated for 24 hrs by MTT assay; format: functional, cell-based; details: dose 10-20 µM
[12] = Inhibition of […] (unknown origin); design: species or system Homo sapiens
Cholinesterase = Cholinesterase (Equus caballus, UniProt P81908); assay: Inhibition of horse serum BuChE using butyrylthiocholine iodide as substrate preincubated with enzyme for 20 mins followed by substrate addition and measured after 10 mins by Ellman's method; format: cell-free
BV-2 [13] = assay: Anti-neuroinflammatory activity against LPS-stimulated mouse BV-2 cells assessed as reduction in TNF-alpha production pretreated for 1 hr with compound followed by LPS treatment for 24 hrs by ELISA; format: functional, cell-based; details: dose 5-20 µM, time 25.0 hrs, DDE = dose-dependent effect
[14] = molecular target: cGMP-dependent 3',5'-cyclic phosphodiesterase (Homo sapiens, UniProt O00408); assay: Inhibition of PDE2A (unknown origin)
[15] = Neurotoxicity against rat PC-12 cells assessed as reduction in cell viability up to 20 uM incubated for 24 hrs by MTT assay; format: toxicity, cell-based; details: pc-12, 24 h
Mus musculus [16] = assay: Anti-neuroinflammatory activity against aggregated Abeta(25-35)-induced Alzheimer's disease C57BL/6 mouse model assessed as inhibition of TNF-alpha production in hippocampus at 2 mg/kg, iv measured after 2 hrs by ELISA; format: functional, organism-based
BV-2 [17] = assay: Anti-neuroinflammatory activity against LPS-stimulated mouse BV-2 cells assessed as reduction in TNF-alpha production at 20 uM pretreated for 1 hr with compound followed by LPS treatment for 24 hrs by ELISA; format: functional, cell-based; details: time 25.0 hrs
[18] = molecular target: High affinity cAMP-specific and IBMX-insensitive 3',5'-cyclic phosphodiesterase 8A (Homo sapiens, UniProt O60658); assay: Inhibition of PDE8A1 (unknown origin)
[19] = molecular target: Acetylcholinesterase (Electrophorus electricus) (UniProt O42275); assay: Potency index, ratio of donepezil IC50 to test compound IC50 for inhibition of electric eel AChE using acetylthiocholine iodide as substrate preincubated with enzyme for 20 mins followed by substrate addition and measured after 10 mins by Ellman's method; details: time 30.0 min
[20] = molecular target: Acetylcholinesterase (Electrophorus electricus) (UniProt O42275); assay: Inhibition of electric eel AChE using acetylthiocholine iodide as substrate at 1 uM preincubated with enzyme for 20 mins followed by substrate addition and measured after 10 mins by Ellman's method; details: time 30.0 min
PC-12 [21] = assay: Neuroprotective activity against rat PC-12 cells assessed as inhibition of Abeta(25-35)-induced cytotoxicity by measuring increase in cell viability at 10 uM incubated for 24 hrs by MTT assay; format: functional, cell-based
Mus musculus [22] = assay: Anti-neuroinflammatory activity against aggregated Abeta(25-35)-induced Alzheimer's disease C57BL/6 mouse model assessed as inhibition of TNF-alpha production in hippocampus at 1 mg/kg, iv measured after 2 hrs in presence of 1 mg/kg, iv rolipram by ELISA; format: functional, organism-based

Acetylcholinesterase (Electrophorus electricus), sequence (O42275 24-633 limits assumed): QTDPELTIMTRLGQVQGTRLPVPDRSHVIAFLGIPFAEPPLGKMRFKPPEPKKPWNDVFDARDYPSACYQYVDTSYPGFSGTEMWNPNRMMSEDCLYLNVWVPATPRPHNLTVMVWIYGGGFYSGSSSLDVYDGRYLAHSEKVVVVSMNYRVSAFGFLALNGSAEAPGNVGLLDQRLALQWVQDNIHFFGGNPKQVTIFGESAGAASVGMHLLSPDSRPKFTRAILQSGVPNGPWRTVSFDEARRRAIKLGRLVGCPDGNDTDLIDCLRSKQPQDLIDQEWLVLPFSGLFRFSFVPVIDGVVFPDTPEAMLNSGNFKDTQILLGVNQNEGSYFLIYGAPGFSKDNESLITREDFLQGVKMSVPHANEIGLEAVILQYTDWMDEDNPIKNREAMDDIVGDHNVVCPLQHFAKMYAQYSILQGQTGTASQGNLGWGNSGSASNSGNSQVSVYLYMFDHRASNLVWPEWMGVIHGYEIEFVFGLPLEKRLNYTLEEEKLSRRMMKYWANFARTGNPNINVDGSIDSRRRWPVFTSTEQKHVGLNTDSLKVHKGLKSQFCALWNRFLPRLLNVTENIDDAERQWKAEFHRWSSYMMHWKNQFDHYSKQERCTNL
T1 sequence (Q08499 whole entry): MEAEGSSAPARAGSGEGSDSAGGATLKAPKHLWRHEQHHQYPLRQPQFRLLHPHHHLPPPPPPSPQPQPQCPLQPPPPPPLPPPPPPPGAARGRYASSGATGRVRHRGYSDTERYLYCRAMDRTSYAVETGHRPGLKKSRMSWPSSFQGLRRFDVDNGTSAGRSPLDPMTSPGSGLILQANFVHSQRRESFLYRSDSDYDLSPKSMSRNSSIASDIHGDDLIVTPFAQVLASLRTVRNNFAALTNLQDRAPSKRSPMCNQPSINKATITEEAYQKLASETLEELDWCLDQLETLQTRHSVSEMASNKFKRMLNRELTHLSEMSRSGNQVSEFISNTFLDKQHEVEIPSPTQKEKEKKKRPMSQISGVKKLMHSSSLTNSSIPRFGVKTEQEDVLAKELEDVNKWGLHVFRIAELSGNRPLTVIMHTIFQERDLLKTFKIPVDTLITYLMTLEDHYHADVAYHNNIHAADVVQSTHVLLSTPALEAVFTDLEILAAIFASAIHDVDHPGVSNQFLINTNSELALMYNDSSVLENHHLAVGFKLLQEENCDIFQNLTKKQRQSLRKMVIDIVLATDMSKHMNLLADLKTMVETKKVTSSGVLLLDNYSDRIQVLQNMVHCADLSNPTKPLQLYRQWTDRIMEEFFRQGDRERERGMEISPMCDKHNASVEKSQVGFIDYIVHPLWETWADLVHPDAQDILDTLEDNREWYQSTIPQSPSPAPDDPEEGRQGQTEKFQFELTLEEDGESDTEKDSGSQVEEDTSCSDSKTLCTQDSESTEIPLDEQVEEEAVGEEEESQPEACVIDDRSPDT
Acetylcholinesterase, sequence (O42275 whole entry): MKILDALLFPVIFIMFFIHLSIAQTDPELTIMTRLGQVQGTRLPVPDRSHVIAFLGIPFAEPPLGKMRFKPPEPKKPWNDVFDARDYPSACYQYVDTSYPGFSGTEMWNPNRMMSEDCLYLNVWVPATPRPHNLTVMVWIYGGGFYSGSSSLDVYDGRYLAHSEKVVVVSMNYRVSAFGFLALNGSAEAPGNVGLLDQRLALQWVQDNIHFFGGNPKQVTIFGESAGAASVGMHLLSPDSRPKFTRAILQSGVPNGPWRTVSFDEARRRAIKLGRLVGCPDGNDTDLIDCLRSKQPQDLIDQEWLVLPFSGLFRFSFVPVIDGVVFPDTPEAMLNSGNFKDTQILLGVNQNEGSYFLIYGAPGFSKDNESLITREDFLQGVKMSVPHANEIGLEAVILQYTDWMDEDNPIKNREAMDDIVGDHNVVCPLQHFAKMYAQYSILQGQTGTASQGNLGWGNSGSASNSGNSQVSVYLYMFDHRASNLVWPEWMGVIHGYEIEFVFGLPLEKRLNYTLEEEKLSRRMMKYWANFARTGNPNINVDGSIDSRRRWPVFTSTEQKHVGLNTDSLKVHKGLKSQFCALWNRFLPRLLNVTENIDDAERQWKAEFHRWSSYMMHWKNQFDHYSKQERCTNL
cGMP-inhibited 3',5'-cyclic phosphodiesterase 3B, sequence (Q13370 whole entry): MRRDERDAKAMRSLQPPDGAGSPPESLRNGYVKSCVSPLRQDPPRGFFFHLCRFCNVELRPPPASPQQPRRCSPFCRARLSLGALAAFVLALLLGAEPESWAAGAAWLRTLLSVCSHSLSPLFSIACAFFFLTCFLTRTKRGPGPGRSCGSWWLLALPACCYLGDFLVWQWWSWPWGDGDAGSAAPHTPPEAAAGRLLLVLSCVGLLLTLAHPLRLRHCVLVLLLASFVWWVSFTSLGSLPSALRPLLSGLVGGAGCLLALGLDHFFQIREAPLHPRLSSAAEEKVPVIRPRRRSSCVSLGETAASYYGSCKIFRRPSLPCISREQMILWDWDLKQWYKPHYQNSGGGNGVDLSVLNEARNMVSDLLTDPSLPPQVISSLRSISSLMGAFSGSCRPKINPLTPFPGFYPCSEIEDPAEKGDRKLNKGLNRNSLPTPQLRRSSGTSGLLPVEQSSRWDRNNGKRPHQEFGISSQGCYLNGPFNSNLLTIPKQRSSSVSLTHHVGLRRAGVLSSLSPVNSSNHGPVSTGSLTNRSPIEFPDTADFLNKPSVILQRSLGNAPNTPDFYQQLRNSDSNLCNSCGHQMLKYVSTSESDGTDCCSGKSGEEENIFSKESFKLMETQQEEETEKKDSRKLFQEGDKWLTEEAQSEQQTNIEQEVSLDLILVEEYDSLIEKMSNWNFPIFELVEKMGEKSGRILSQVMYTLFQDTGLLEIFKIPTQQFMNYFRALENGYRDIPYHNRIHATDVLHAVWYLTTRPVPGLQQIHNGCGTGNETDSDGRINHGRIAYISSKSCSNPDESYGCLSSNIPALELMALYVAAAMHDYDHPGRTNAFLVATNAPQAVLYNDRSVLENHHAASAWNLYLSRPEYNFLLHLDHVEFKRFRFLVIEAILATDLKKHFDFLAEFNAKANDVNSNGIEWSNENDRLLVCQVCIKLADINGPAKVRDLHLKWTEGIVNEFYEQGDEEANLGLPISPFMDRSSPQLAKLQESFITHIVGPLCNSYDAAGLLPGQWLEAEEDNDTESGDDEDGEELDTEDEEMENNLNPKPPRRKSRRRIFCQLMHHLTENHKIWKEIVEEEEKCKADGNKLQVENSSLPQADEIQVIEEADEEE
cGMP-dependent 3',5'-cyclic phosphodiesterase, sequence (O00408 whole entry): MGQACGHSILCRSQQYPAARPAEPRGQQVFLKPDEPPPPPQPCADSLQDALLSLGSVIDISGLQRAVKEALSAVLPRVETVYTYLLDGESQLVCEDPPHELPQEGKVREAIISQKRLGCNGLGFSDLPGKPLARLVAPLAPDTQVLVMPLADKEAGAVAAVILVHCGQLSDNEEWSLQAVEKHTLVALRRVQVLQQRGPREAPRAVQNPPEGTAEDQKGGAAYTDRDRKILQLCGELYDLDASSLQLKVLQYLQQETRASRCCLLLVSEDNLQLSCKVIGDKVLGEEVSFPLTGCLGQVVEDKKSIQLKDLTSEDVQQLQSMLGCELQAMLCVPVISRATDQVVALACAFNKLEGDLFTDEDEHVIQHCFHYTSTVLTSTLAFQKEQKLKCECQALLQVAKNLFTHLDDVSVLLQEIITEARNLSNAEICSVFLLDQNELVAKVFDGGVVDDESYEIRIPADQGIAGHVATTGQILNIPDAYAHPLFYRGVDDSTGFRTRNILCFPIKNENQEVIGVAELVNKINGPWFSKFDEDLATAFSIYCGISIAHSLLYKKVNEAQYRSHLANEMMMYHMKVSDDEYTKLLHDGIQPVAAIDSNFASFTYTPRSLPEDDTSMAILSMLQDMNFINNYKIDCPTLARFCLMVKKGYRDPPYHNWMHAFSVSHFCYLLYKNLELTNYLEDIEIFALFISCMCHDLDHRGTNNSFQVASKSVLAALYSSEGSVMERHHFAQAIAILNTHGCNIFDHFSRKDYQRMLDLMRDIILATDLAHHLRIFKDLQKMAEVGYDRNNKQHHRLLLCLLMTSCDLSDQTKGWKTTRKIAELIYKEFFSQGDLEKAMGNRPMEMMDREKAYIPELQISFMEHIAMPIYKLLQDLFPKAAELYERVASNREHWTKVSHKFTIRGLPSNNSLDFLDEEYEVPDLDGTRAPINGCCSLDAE
Dual specificity calcium/calmodulin-dependent 3',5'-cyclic nucleotide phosphodiesterase 1A, sequence (P54750 whole entry): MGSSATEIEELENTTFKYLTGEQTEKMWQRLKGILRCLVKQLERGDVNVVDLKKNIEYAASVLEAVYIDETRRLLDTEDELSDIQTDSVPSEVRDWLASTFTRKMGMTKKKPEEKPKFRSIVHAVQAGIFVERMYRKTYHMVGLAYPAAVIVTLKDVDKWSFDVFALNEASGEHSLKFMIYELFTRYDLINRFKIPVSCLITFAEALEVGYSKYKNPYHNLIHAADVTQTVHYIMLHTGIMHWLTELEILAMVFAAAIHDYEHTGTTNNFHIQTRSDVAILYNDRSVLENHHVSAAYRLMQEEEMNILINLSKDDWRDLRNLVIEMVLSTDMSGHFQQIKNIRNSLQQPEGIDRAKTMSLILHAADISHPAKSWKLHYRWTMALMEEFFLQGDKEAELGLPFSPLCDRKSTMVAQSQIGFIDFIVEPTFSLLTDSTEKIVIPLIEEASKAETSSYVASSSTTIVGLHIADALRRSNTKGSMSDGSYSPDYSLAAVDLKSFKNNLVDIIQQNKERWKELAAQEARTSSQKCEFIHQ

| SMILES | inhibition [1] [%] | IC50 [2] [µM] | IC50 (Acetylcholinesterase) [µM] | inhibition [3] [%] | further results |
| --- | --- | --- | --- | --- | --- |
| COc1cc2c(cc1OC1CCCC1)C(=O)/C(=C/c1ccncc1)C2 | 51 | 3.1 | 11.4 |  |  |
| COc1cc2c(cc1OCC(C)C)C(=O)C(CC1CCN(Cc3ccccc3)CC1)C2 (stereo not given) |  |  | 0.5 | < 10 |  |
| COc1cc2c(cc1OCCN1CCCCC1)C(=O)C(Cc1cccnc1)C2 (stereo not given) |  | 1.88 | 0.28 |  | IC50 [4]: > 50 µM; IC50 [5]: > 50 µM; inhibition (Mus musculus [6]): Active; IC50 [7]: > 50 µM; IC50 [8]: > 50 µM; IC50 [9]: > 50 µM; Activity (BV-2 [10]): Non-Toxic; Activity (PC-12 [11]): Active; IC50 [12]: > 50 µM; IC50 (Cholinesterase): 36.9 µM; Activity (BV-2 [13]): Dde; IC50 [14]: > 50 µM; Activity [15]: Non-Toxic; Activity (Mus musculus [16]): Active; Activity (BV-2 [17]): Active; IC50 [18]: > 50 µM; Ratio IC50 [19]: 19 |
| COc1cc2c(cc1OCC1CC1)CC(CC1CCN(Cc3ccccc3)CC1)C2=O (stereo not given) |  |  | 0.21 | < 10 |  |
| COc1ccc(CC2Cc3cc(OC)c(OCCN4CCCC4)cc3C2=O)cc1 (stereo not given) |  |  |  |  | inhibition [20]: 20% |
| COc1cc2c(cc1OCC(C)C)CC(Cc1ccncc1)C2=O (stereo not given) | 15 | 4.2 | 64.3 |  |  |
| COc1cc2c(cc1OC1CCCC1)CC(Cc1ccncc1)C2=O (stereo not given) | 27 | 5.3 | 30.5 |  |  |
| COc1cc2c(cc1OC)C(=O)C(CC1CCN(Cc3ccccc3)CC1)C2 (stereo not given) [DONEPEZIL] |  | 36 |  |  | inhibition (Mus musculus [6]): Active; Activity (Mus musculus [16]): Active; Activity (PC-12 [21]): Active; Activity (Mus musculus [22]): Active; Activity (BV-2 [17]): Active |
| COc1cc2c(cc1OC1CCCC1)C/C(=C\c1cccnc1)C2=O | 50 |  | 11.7 | < 10 |  |
| COc1cc2c(cc1OC1CCCC1)C(=O)C(Cc1ccccn1)C2 (stereo not given) | 11 | 8.7 | 38.3 |  |  |
| COc1cc2c(cc1OC1CCCC1)CC(CC1CCNCC1)C2=O (stereo not given) | 19 |  |  | < 10 |  |
| COc1cc2c(cc1OCC1CC1)C(=O)C(CC1CCN(Cc3ccccc3)CC1)C2 (stereo not given) |  |  | 0.045 | < 10 |  |
| COc1cc2c(cc1OC1CCCC1)C(=O)C(Cc1ccncc1)C2 (stereo not given) | 15 | 3.4 | 55.9 |  |  |
| COc1ccc(C2CNC(=O)C2)cc1OC1CCCC1 (stereo not given) |  |  |  |  | Activity (PC-12 [21]): Active |
| COc1cc2c(cc1OCCN1CCCCC1)C(=O)C(Cc1ccncc1)C2 (stereo not given) |  | 16.4 | 0.07 |  |  |
| COc1cc2c(cc1OCC(C)C)CC(CC1CCN(Cc3ccccc3)CC1)C2=O (stereo not given) |  |  | 0.21 | < 10 |  |

| SMILES | inhibition [1] [%] | IC50 [2] [µM] | IC50 (Acetylcholinesterase) [µM] | inhibition [3] [%] | further results |
| --- | --- | --- | --- | --- | --- |
| COc1cc2c(cc1OC1CCCC1)C(=O)C(CC1CCN(Cc3ccccc3)CC1)C2 (stereo not given) |  |  | 0.058 | < 10 |  |
| COc1cc2c(cc1OCC(C)C)CC(CC1CCNCC1)C2=O (stereo not given) | < 10 |  |  | < 10 |  |
| COc1cc2c(cc1OC1CCCC1)C(=O)/C(=C/c1ccccn1)C2 | 39 |  |  | 11 |  |
| COc1cc2c(cc1OCC1CC1)CC(CC1CCNCC1)C2=O (stereo not given) | 25 |  |  | < 10 |  |
| COc1cc2c(cc1OCC1CC1)CC(Cc1ccncc1)C2=O (stereo not given) | 23 |  |  | 31 |  |
| COc1ccc(CC2Cc3cc(OC)c(OCCN4CCCCC4)cc3C2=O)cc1 (stereo not given) |  |  | 0.81 | < 10 |  |
| COc1cc2c(cc1OCC(C)C)C(=O)C(Cc1ccncc1)C2 (stereo not given) | 14 |  |  | 34 |  |
| COc1cc2c(cc1OCCN1CCCC1)C(=O)C(Cc1ccncc1)C2 (stereo not given) |  |  | 1.08 | < 10 |  |
| COc1cc2c(cc1OC1CCCC1)C(=O)C(CC1CCNCC1)C2 (stereo not given) | 11 |  |  | < 10 |  |
| COc1cc2c(cc1OC1CCCC1)C(=O)C(Cc1cccnc1)C2 (stereo not given) | 26 | 23 |  | 34 |  |
| COc1cc2c(cc1OC1CCCC1)C(=O)/C(=C/c1cccnc1)C2 | 56 | 4.1 | 8.4 |  |  |
| COc1cc2c(cc1OCC1CC1)C(=O)C(CC1CCNCC1)C2 (stereo not given) | 21 |  |  | < 10 |  |
| COc1cc2c(cc1OCC1CC1)C(=O)C(Cc1ccncc1)C2 (stereo not given) | 25 | 6.3 | 35.9 |  |  |
| COc1cc2c(cc1OCC(C)C)C(=O)C(CC1CCNCC1)C2 (stereo not given) | 12 |  |  | < 10 |  |
| COc1cc2c(cc1OC1CCCC1)CC(CC1CCN(Cc3ccccc3)CC1)C2=O (stereo not given) |  |  | 0.21 | < 10 |  |
